Source: patent US20150282506A1, “FLAVOUR ADDITIVES” (MARS, INCORPORATED, priority 2012, published 2015)

These compounds were tested on T1R1/T1R3 umami receptor (assay: In vitro screening of amino acids for ability to activate the T1R1/T1R3 receptor in the presence of 0.2 mM IMP). Conditions: FIG. 10.
Assay type: cell-based

| Compound | activation of the T1R1/T1R3 umami receptor |
| --- | --- |
| N=C(N)NCCC[C@H](N)C(=O)O [arginine] | do not activate |
| N[C@@H](CC(=O)O)C(=O)O [aspartic acid] | do not activate |
| N[C@@H](CSSC[C@H](N)C(=O)O)C(=O)O [cystine] | do not activate |
| N[C@@H](CCC(=O)O)C(=O)O [glutamic acid] | do not activate |
| NC(=O)CC[C@H](N)C(=O)O [glutamine] | do not activate |
| O=C(O)[C@@H]1C[C@@H](O)CN1 [hydroxyproline] | do not activate |
| CC[C@H](C)[C@H](N)C(=O)O [isoleucine] | do not activate |
| NCCCC[C@H](N)C(=O)O [lysine] | do not activate |
| NCCC[C@H](N)C(=O)O [ornithine] | do not activate |
| O=C(O)[C@@H]1CCCN1 [proline] | do not activate |
| NCCS(=O)(=O)O [taurine] | do not activate |
| C[C@@H](O)[C@H](N)C(=O)O [threonine] | do not activate |
| CC(C)[C@H](N)C(=O)O [valine] | do not activate |
